Results published in the CheMixHub viscosity set.
Values joined by “and” are separate entries in the source; they are usually repeats but may differ in a detail not shown here. Equal values may be shown once.

Columns and labels:
[1] = xn = mol fraction of the nth substance listed

BrC(Br)(Br)Br
Settings	viscosity [mPa·s]
298.15 K, 101 kPa	3.987

C=CCn1cc[n+](C)c1.O=S(=O)([N-]S(=O)(=O)C(F)(F)F)C(F)(F)F
Settings	viscosity [mPa·s]
298.15 K, 100 kPa	34.31

CC(=O)N(C)C
Settings	viscosity
293.15 K, 101.33 kPa	1.02 mPa·s
298 K, 101.33 kPa	0.906 mPa·s
298.15 K, 101.3 kPa	0.917 mPa·s
298.15 K, 101.33 kPa	0.92 mPa·s
298.16 K, 101 kPa	0.927 mPa·s
303.15 K, 101.3 kPa	0.8769 mPa·s
308.15 K, 101.33 kPa	0.823 mPa·s
313.15 K, 100 kPa	0.765 mPa·s
323.15 K, 101 kPa	0.673 mPa·s and 0.69 mPa·s
323.15 K, 101.33 kPa	0.72 mPa·s

CC(=O)OCCC1CCCCC1
101 kPa
Settings	viscosity [mPa·s]
300 K	2.54
310 K	2.07
320 K	1.72

CC(O)CN(C)C (stereo not drawn)
101 kPa
Settings	viscosity [mPa·s]
303.15 K	1.221
308.15 K	1.097
313.15 K	0.99
318.15 K	0.902
323.15 K	0.825

CC1CCCCC1=O (stereo not drawn)
viscosity [mPa·s]
Settings	303.15 K	308.15 K	313.15 K
100 kPa	2.225	2.168	2.111
101 kPa	2.225	2.168	–
101.33 kPa	1.406	–	–

CCC1CCCCC1
100 kPa
Settings	viscosity
298.15 K	0.797 mPa·s and 0.792 mPa·s and 0.801 mPa·s
303.15 K	0.747 mPa·s and 0.741 mPa·s
308.15 K	0.705 mPa·s and 0.697 mPa·s and 0.701 mPa·s
313.15 K	0.662 mPa·s and 0.65 mPa·s and 0.664 mPa·s
318.15 K	0.627 mPa·s and 0.617 mPa·s
323.15 K	0.585 mPa·s and 0.57 mPa·s and 0.586 mPa·s

CCCCCCCCCO
viscosity
Settings	298 K	298.15 K	303.15 K	308.15 K	318.15 K	323.15 K
100 kPa	9.587 mPa·s and 7.614 mPa·s	9.566 mPa·s	7.967 mPa·s	6.59 mPa·s and 6.675 mPa·s	4.852 mPa·s and 4.814 mPa·s	4.179 mPa·s and 4.145 mPa·s
101.3 kPa	–	8.965 mPa·s and 9.692 mPa·s	7.375 mPa·s	6.114 mPa·s and 6.494 mPa·s	–	–
101.33 kPa	–	–	7.376 mPa·s	–	–	–

CCCCCCCC[P+](CC)(CC)CC.O=[N+]([O-])c1cn[n-]c1
100 kPa
Settings	viscosity [mPa·s]
293.15 K	398
298.15 K	282
303.15 K	207
308.15 K	155
313.15 K	119
318.15 K	94
323.15 K	75

CCCCCCCC[n+]1ccn(C)c1.F[B-](F)(F)F
101 kPa
Settings	viscosity
298.15 K	336.3 mPa·s and 336.3 mPa·s
303.15 K	257.5 mPa·s
308.15 K	193.8 mPa·s
313.15 K	148.8 mPa·s
323.15 K	92.1 mPa·s

CN(C)CCCO
viscosity [mPa·s]
Settings	293.15 K	303.15 K	308.15 K	313.15 K	318.15 K	323.15 K
100 kPa	7.42	5.228	–	4.007	–	3.082
101 kPa	–	4.933	4.22	3.632	3.155	2.765

Cc1cccc2ccccc12
100 kPa
Settings	viscosity
303.15 K	2.58 mPa·s and 2.62 mPa·s and 2.582 mPa·s
323.15 K	1.75 mPa·s and 1.75 mPa·s and 1.748 mPa·s

NCCNCCO.O=S(=O)([N-]S(=O)(=O)C(F)(F)F)C(F)(F)F.[Li+]
Settings	viscosity [mPa·s]
323.15 K, 101 kPa	735.9

O=[N+]([O-])c1ccccc1O
viscosity [mPa·s]
Settings	313.15 K	323.1 K	323.15 K
101 kPa	2.755	2.68	–
101.33 kPa	–	–	2.31

CC(N)=O + O
[1], 101 kPa
Settings	viscosity [mPa·s]
293.15 K, x1 = 0.0438	1.015
293.15 K, x1 = 0.0791	1.178
293.15 K, x1 = 0.1282	1.416
295.65 K, x1 = 0.02282	1.222
295.65 K, x1 = 0.03616	1.155
295.65 K, x1 = 0.03629	1.149
295.65 K, x1 = 0.0429	1.262
295.65 K, x1 = 0.07191	1.716
295.65 K, x1 = 0.07575	1.47
298.15 K, x1 = 0.0024	0.89
298.15 K, x1 = 0.0185	0.991
298.15 K, x1 = 0.06152	1.232
298.15 K, x1 = 0.09656	1.458
298.15 K, x1 = 0.1531	1.875
298.15 K, x1 = 0.4073	4.442
303 K, x1 = 0.0363	1.149
303 K, x1 = 0.0438	1.015
303 K, x1 = 0.0791	1.178
303 K, x1 = 0.0928	1.416

CN(C)CCCO + O
viscosity [mPa·s], [1], 101 kPa
Settings	303.15 K	308.15 K	313.15 K	318.15 K	323.15 K
x1 = 0.0478	2.218	1.896	1.635	1.432	1.262
x1 = 0.0968	4.633	3.796	3.147	2.654	2.264
x1 = 0.1512	7.882	6.285	5.078	4.181	3.481
x1 = 0.2009	–	8.49	6.753	5.485	4.497
x1 = 0.2997	14.97	11.59	9.103	7.288	5.903
x1 = 0.3537	–	12.35	9.663	7.732	6.247
x1 = 0.4037	16.02	12.42	9.761	7.792	6.34
x1 = 0.4574	15.39	12	9.458	7.631	6.19
x1 = 0.499	14.63	11.46	9.077	7.329	5.974
x1 = 0.6012	12.08	9.654	7.784	6.38	5.271
x1 = 0.7274	9.064	7.42	6.133	5.114	4.304
x1 = 0.8081	7.504	6.239	5.224	4.417	3.765
x1 = 0.9112	5.925	5.02	4.261	3.658	3.168

C[NH+](C)CCO.O=C([O-])CC(=O)O + O
[1], 101 kPa, x2 = 0.88
Settings	viscosity [mPa·s]
298 K	9.67
313 K	6.09

NC(CO)C(=O)[O-].[K+] (stereo not drawn) + O
viscosity [mPa·s], [1], 100 kPa
Settings	x1 = 0.009	x1 = 0.019	x1 = 0.029	x1 = 0.039	x1 = 0.049	x1 = 0.06
303.15 K	0.9271	1.088	1.308	1.575	1.929	2.448
308.15 K	0.8325	0.9764	1.175	1.412	1.719	2.172
313.15 K	0.7628	0.8877	1.067	1.279	1.55	1.949
318.15 K	0.696	0.8049	0.9686	1.159	1.398	1.752
323.15 K	0.6347	0.74	0.8896	1.061	1.275	1.59
